Results as given in ChEMBL document CHEMBL1132365, “A multisubstrate adduct inhibitor of AICAR transformylase” (J Med Chem, 1999).

Assays:
[1] = target: AICAR transformylase (Lactobacillus casei); experiment: Inhibitory activity against AICAR formyltransferase
[2] = target: T1, Bifunctional purine biosynthesis protein ATIC (Homo sapiens, UniProt P31939); experiment: Binding affinity towards AICAR formyltransferase
[3] = target: T1, Bifunctional purine biosynthesis protein ATIC; experiment: Inhibitory activity against AICAR formyltransferase

T1 sequence (P31939 whole entry): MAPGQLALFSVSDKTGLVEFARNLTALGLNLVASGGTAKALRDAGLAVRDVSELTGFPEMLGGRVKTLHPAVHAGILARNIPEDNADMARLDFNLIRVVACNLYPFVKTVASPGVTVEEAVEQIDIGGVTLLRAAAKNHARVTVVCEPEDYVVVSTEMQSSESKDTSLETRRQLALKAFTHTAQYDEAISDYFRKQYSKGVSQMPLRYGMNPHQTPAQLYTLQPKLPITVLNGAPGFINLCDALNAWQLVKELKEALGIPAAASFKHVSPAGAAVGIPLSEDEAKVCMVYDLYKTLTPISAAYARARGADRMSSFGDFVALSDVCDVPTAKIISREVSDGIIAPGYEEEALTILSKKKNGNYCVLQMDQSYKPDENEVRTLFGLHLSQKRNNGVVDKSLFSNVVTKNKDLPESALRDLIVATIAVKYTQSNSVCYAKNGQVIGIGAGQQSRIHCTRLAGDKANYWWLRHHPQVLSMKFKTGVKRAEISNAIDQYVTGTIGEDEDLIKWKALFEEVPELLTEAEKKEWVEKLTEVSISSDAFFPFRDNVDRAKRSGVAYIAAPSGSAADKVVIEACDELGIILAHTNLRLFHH

IC50 [1]	Kd [2]	IC50 [3]	SMILES
6.4 µM	–	–	Nc1nc(=O)c2nc(CN(C=O)c3ccc(C(=O)N[C@H](CCC(=O)O)C(=O)O)cc3)ccc2[nH]1
–	0.02 µM	0.125 µM	NC(=O)c1ncn(C2O[C@H](COP(=O)(O)O)[C@@H](O)[C@H]2O)c1/C=C/C(=O)N(CC1=NC2C(=O)NC(N)=NC2C=C1)c1ccc(C(=O)N[C@@H](CCC(=O)O)C(=O)O)cc1 (stereo partly drawn)
